According to ChEMBL document CHEMBL4422644, “Synthesis and evaluation of α-aminoacyl amides as antitubercular agents effective on drug resistant tuberculosis” (Eur J Med Chem, 2019):
Converted amounts (≈) assume the structure as drawn.

Legend:
[1] = test system: Mycobacterium tuberculosis; assay: Antitubercular activity against Mycobacterium tuberculosis H37Rv after 7 days by alamar blue assay; assay type: functional; settings: 168 h
[2] = test system: CHO-K1; assay: Cytotoxicity against CHOK1 cells after 24 hrs by MTT assay; assay type: cell-based; settings: Cricetulus griseus, CHO-K1, 24 h
[3] = Selectivity index, ratio of IC50 for CHOK1 cells to MIC for Mycobacterium tuberculosis H37Rv; assay type: toxicity; settings: hamster, read-out: Selectivity Index
[4] = test system: A549; assay: Cytotoxicity against human A549 cells after 24 hrs by MTT assay; assay type: functional, cell-based; settings: A549, 24 h
[5] = test system: DU-145; assay: Cytotoxicity against human DU145 cells after 24 hrs by MTT assay; assay type: functional, cell-based; settings: DU-145, 24 h
[6] = test system: HeLa; assay: Cytotoxicity against human HeLa cells after 24 hrs by MTT assay; assay type: functional, cell-based
[7] = test system: HepG2; assay: Cytotoxicity against human HepG2 cells after 24 hrs by MTT assay; assay type: functional, cell-based; settings: HepG2, 24 h
[8] = test system: MCF7; assay: Cytotoxicity against human MCF7 cells after 24 hrs by MTT assay; assay type: functional, cell-based; settings: MCF7, 24 h
[9] = Cytotoxicity against […] B16 cells after 24 hrs by MTT assay; assay type: functional, cell-based; settings: B16, 24 h
[10] = Cytotoxicity against HEK cells after 24 hrs by MTT assay; assay type: cell-based; settings: Homo sapiens, HEK293, 24 h
[11] = test system: Escherichia coli; assay: Antibacterial activity against Escherichia coli ATCC 25922 after 24 hrs; assay type: functional; settings: ATCC 25922, 24 h
[12] = test system: Staphylococcus aureus; assay: Antibacterial activity against Staphylococcus aureus ATCC 29213 after 24 hrs; assay type: functional; settings: ATCC 29213, 24 h
[13] = test system: Pseudomonas aeruginosa; assay: Antibacterial activity against Pseudomonas aeruginosa ATCC 27853 after 24 hrs; assay type: functional; settings: ATCC 27853, 24 h
[14] = test system: Klebsiella pneumoniae; assay: Antibacterial activity against Klebsiella pneumoniae ATCC BAA-1705 after 24 hrs; assay type: functional; settings: ATCC BAA-1705, 24 h
[15] = test system: Acinetobacter baumannii; assay: Antibacterial activity against Acinetobacter baumannii ATCC BAA-1605 after 24 hrs; assay type: functional; settings: ATCC BAA-1605, 24 h
[16] = test system: Mycolicibacterium fortuitum; assay: Antibacterial activity against Mycobacterium fortuitum after 7 days by alamar blue assay; assay type: functional; settings: 168 h
[17] = test system: Mycobacteroides chelonae; assay: Antibacterial activity against Mycobacterium chelonae after 7 days by alamar blue assay; assay type: functional; settings: 168 h
[18] = test system: Mycobacteroides abscessus; assay: Antibacterial activity against Mycobacterium abscessus after 7 days by alamar blue assay; assay type: functional; settings: 168 h

Structure (SMILES) | MIC [1] [µM] | IC50 [2] [µM] | selectivity ratio [3] | IC50 [4] [µM] | IC50 [5] [µM] | IC50 [6] [µM] | IC50 [7] [µM] | IC50 [8] [µM] | IC50 [9] [µM] | IC50 [10] [µM] | MIC [11] [µM] | MIC [12] [µM] | MIC [13] [µM] | MIC [14] [µM] | MIC [15] [µM] | MIC [16] [µM] | MIC [17] [µM] | MIC [18] [µM]
Cc1ccc(N(C(=O)c2ccc[nH]2)C(C(=O)NC2CCCCC2)c2ccccc2)c(C)c1 (stereo not drawn) | 6.25 (≈ 2.68 µg/mL) | 68.2 | 10.8 | 15.5 | 9.3 | 10.9 | 13.5 | 15.5 | 32.5 | 33.2 | > 50 | > 50 | > 50 | > 50 | > 50 | > 50 | > 50 | > 50
Cc1ccc(N(C(=O)c2sc(C)nc2C)C(C(=O)NC2CCCCC2)c2ccncc2)cc1 (stereo not drawn) | 12.5 (≈ 5.78 µg/mL) | 141 | 11.3 | 11.6 | 14.5 | 11 | 12 | 10.3 | 23.9 | 81.1 | > 50 | > 50 | > 50 | > 50 | > 50 | > 50 | > 50 | > 50
Cc1cccc(N(C(=O)c2ccncc2)C(C(=O)NC2CCCCC2)c2ccccc2)c1C (stereo not drawn) | 6.25 (≈ 2.76 µg/mL) | 81.4 | 13 | 12.9 | 11.3 | 13.8 | 6.99 | 6.41 | 12.2 | 38 | > 50 | > 50 | > 50 | > 50 | > 50 | > 50 | > 50 | > 50
Cc1ccc(N(C(=O)c2sc(C)nc2C)C(C(=O)NC2CCCCC2)c2ccc[nH]2)cc1 (stereo not drawn) | 6.25 (≈ 2.82 µg/mL) | 33.4 | 5.3 | 11.7 | 12.7 | 11.6 | 6.13 | 4.25 | 14.5 | 15.4 | > 50 | > 50 | > 50 | > 50 | > 50 | > 50 | > 50 | > 50
Cc1cccc(N(C(=O)c2ccc[nH]2)C(C(=O)NC2CCCCC2)c2ccccc2)c1C (stereo not drawn) | 12.5 (≈ 5.37 µg/mL) | 134 | 10.7 | 6.83 | 11.2 | 14.2 | 11 | 3.58 | 12.3 | 116 | > 50 | > 50 | > 50 | > 50 | > 50 | > 50 | > 50 | > 50
Cc1nc(C)c(C(=O)N(c2cccc(C)c2C)C(C(=O)NCc2ccccc2)c2ccccc2)s1 (stereo not drawn) | 6.12 (≈ 2.96 µg/mL) | 30.2 | 4.9 | 12.7 | 12.6 | 11.7 | 8.13 | 5.62 | 12.4 | 31.2 | > 50 | > 50 | > 50 | > 50 | > 50 | > 50 | > 50 | > 50
Cc1ccc(N(C(=O)c2c(C)noc2C)C(C(=O)NC2CCCCC2)c2ccncc2)cc1 (stereo not drawn) | 6.12 (≈ 2.73 µg/mL) | 166 | 26.6 | 11 | 9.53 | 15.8 | 8.48 | 4.24 | 28.6 | 71.3 | > 50 | > 50 | > 50 | > 50 | > 50 | > 50 | > 50 | > 50
Cc1ccc(N(C(=O)c2sc(C)nc2C)C(C(=O)NC2CCCCC2)c2ccc(Cl)cc2)cc1 (stereo not drawn) | 0.78 (≈ 0.387 µg/mL) | 7.37 | 8.9 | 10.3 | 9 | 11.9 | 5.33 | 3.19 | 23 | 11.8 | > 50 | > 50 | > 50 | > 50 | > 50 | > 50 | > 50 | > 50
Cc1cccc(N(C(=O)c2ccc[nH]2)C(C(=O)NC2CCCCC2)c2ccncc2)c1C (stereo not drawn) | 6.25 (≈ 2.69 µg/mL) | 142 | 22.6 | 15.8 | 10.8 | 13.1 | 8.95 | 5.85 | 16.6 | 108 | > 50 | > 50 | > 50 | > 50 | > 50 | > 50 | > 50 | > 50
Cc1ccc(N(C(=O)c2sc(C)nc2C)C(C(=O)NC2CCCCC2)c2cccc(C(F)(F)F)c2)cc1 (stereo not drawn) | 6.25 (≈ 3.31 µg/mL) | 42.7 | 6.8 | 13.9 | 11.8 | 16.4 | 8.14 | 5.7 | 11.6 | 59.8 |  |  |  |  |  |  |  | 
Cc1ccc(N(C(=O)c2c(C)noc2C)C(C(=O)NC2CCCCC2)c2cccnc2)cc1 (stereo not drawn) | 6.12 (≈ 2.73 µg/mL) | 112 | 17.9 | 12.9 | 11 | 18.2 | 10.3 | 5.39 | 40 | 82 | > 50 | > 50 | > 50 | > 50 | > 50 | > 50 | > 50 | > 50
Cc1cc(C)c(N(C(=O)c2sc(C)nc2C)C(C(=O)NC2CCCCC2)c2ccccc2)c(C)c1 (stereo not drawn) | 3.25 (≈ 1.59 µg/mL) | 25.9 | 8 | 2.75 | 11.7 | 10.9 | 6.37 | 3.56 | 11.7 | 51.2 | > 50 | > 50 | > 50 | > 50 | > 50 | > 50 | > 50 | > 50
